# Reference: patent US20230250108A1, “TETRAHYDROISOQUINOLINE COMPOUNDS AND USE THEREOF” (JIANGSU SIMCERE PHARMACEUTICAL CO., LTD., priority 2020, published 2023)
# Columns and labels:
# PRMT5/MEP50 = target: T1, PRMT5/MEP50 (Homo sapiens, UniProt O14744); experiment: PRMT5 enzymatic activity inhibition experiment (AlphaScreen); type: biochemical
# T1 construct: purchased BPS Bioscience Inc. (USA)
# Excerpt: Materials: PRMT5/MEP50 proteins were purchased from BPS Bioscience Inc. (USA); Histone H4 Peptide substrate was purchased from Sangon Biotech (Shanghai) Co., Ltd.; Anti-Histone H4 (symmetric dimethyl R3) antibody—ChIP Grade was purchased from Abcam PLC. (USA); S-(5′-Adenosyl)-L-methionine chloride dihydrochloride was purchased from Sigma PLC. (USA); 384-well plate, AlphaScreen Streptavidin Donor beads, AlphaScreen Protein A Acceptor beads, and Envision 2104 multi-label Reader were purchased from Perkin-Elmer Instruments (USA) Corporation; and Echo 550 Liquid Handler was purchased from Labcyte Inc. (USA).
# Enzymatic activity assay: The compounds were added into a 384-well plate by using the Echo 550 Liquid Handler with the final concentration of 0-1000 nM (initial concentration: 1000 nM, 3-fold dilution, for 10 points), and the DMSO content was 0.5%. 10 μL of a 2× PRMT5/MEP50 solution was added into each well and incubated at room temperature for 30 minutes. 10 μL of 2× PRMT5/MEP50 substrate solution was added to each well to start the reaction and incubated at room temperature for 60 minutes. A 6× detection reagent containing AlphaScreen Protein A Acceptor beads and Anti-Histone H4 (symmetric dimethyl R3) antibodies was prepared and 5 μL was added to each well. The plate was incubated at room temperature for 60 minutes. A 6× detection reagent containing AlphaScreen Streptavidin Donor beads was prepared and 5 μL was added to each well. The plate was incubated at room temperature for 60 minutes. The signal values were detected by using the Envision.
# [1] = system: Z-138 subcutaneous tumor models; experiment: In vivo drug efficacy experiment in mice, Z-138 subcutaneous tumor model
# Excerpt: Experimental materials: Z138 cells were purchased from ATCC; IMDM culture solution, penicillin-streptomycin and 0.25% trypsin-EDTA were purchased from Gibco; horse serum and PBS were purchased from Hyclone; and Matrigel was purchased from Corning.
# Animal information: CB17-SCID mice (female, 6-7 weeks, body weight: about 14-20 g) were purchased from Shanghai Lingchang Biotechnology Co., Ltd. The mice were fed in SPF environment and each cage position was individually ventilated. All animals had free access to standard certified commercial laboratory food and water.
# Cell culture: Human mantle cell lymphoma Z-138 cell lines were cultured in vitro and the culture conditions involve: IMDM (cell culture solution) supplemented with 10% horse serum and 1% penicillin-streptomycin solution, 37° C., 5% CO2 incubator. Conventional digestion treatment with 0.25% trypsin-EDTA digestion solution was carried out twice a week for passage. When the cell saturation was 85%-90%, and the number reached the requirement, the cells were collected and counted.
# Cell inoculation: 0.1 ml/(containing 1×10^7) Z-138 cell suspension (PBS Matrigel=1:1) was inoculated subcutaneously on the right back of each mouse. At day 18 post inoculation, when the average tumor volume measured has reached about 125 mm^3, grouping and administration were performed by using the randomized stratification and grouping method based on the tumor volume and animal body weight. PBS was a phosphate buffer free of Ca and Mg ions, and Matrigel was a matrix gel.
# Administration: Compound 002 was administered at the doses of 1.5 mg/kg, 5 mg/kg, or 15 mg/kg, PO, twice daily (BID)×3 weeks. 6 mice per group.
# The diameter of the tumor was measured with vernier calipers twice a week. The calculation formula of tumor volume was V=0.5a×b2, wherein a and b represented the long and short diameters of the tumor, respectively. The body weights of the mice were weighed twice a week.
# The tumor-inhibiting efficacy of the compound was evaluated using tumor growth inhibition (TGI) (%).
# TGI (%)=[(1−(average tumor volume at the end of administration in a certain treatment group−average tumor volume at the beginning of administration in the treatment group)/(average tumor volume at the end of administration in the solvent control group−average tumor volume at the beginning of administration in the solvent control group)]×100%.
# [2] = Hepatocellular metabolic stability test, mouse hepatocytes
# Excerpt: Experimental materials: Human hepatocytes were purchased from Biopredic; mouse hepatocytes were purchased from BioIVT; acetonitrile and methanol were purchased from Merck & Co., Inc.; AOPI dyes were purchased from Nexcelom; dexamethasone was purchased from NIFDC; DMSO was purchased from Beijing Solarbio Science & Technology Co., Ltd.; DPBS (10×), GlutaMAX™-1 (100×) and recombinant human insulin were purchased form Gibco by Life Technologies; fetal bovine serum was purchased from Corning; formic acid was purchased from DIKMAPURE; Isotonic Percoll was purchased from GE Healthcare; alprazolam was purchased from Supelco; caffeine was purchased from ChromaDex.inc; and HEPES, tolbutamide and Williams' Medium E were purchased from Sigma.
# The powder of a test substance was formulated with DMSO into a stock solution with a high concentration, which was diluted to a working solution of 100 μM with acetonitrile prior to use. The final concentration of the test substance was 1 μM.
# 49.5 mL of Williams'E Medium and 0.5 mL of GlutaMAX were mixed as an incubation media. Hepatocyte thawing media and incubation media were placed in a 37° C. water-bath and pre-heated for at least 15 minutes prior to use. A tube of hepatocytes stored at an ultra-low temperature was taken and the hepatocytes were ensured to be at a frozen state at a low temperature prior to thawing. The hepatocytes were rapidly placed in a 37° C. water-bath and gently shaken until all the ice crystals were dispersed, and then after 70% ethanol was sprayed, the hepatocytes were transferred to a biosafety cabinet. The content of the tube was poured into a centrifugal tube containing 50 mL of thawing media and centrifuged at 100 g for 10 minutes. After centrifugation, the thawing media was aspirated, and a sufficient amount of incubation media was added to obtain a cell suspension with a cell density of about 1.5×10^6 cells/mL. The hepatocytes were counted, and the viable cell density was determined using Cellometer Vision, and the survival rate of the hepatocytes must be higher than 75%. The hepatocyte suspension was diluted by using the incubation media to a viable cell density of 0.5×10^6 viable cells/mL.
# 247.5 μL of viable cell (human hepatocytes or mouse hepatocytes) suspension or media were transferred into a 96-well deep-well plate, and the deep-well plate was placed in a vortex incubator and pre-heated for 10 minutes. Incubation of all the samples was performed in parallel duplicate. Test substance (2.5 μL, 100 μM) was added into each well to start the reaction and the deep-well plate was placed in the vortex incubator again. The samples were incubated, and 25 μL of the suspension was taken at 0, 15, 30, 60, 90 and 120 minutes, respectively. 125 μL of acetonitrile containing internal standard (100 nM alprazolam, 200 nM caffeine, and 100 nM tolbutamide) was added to terminate the reaction. The mixture was vortexed for 10 minutes and centrifuged at 3220 g, 4° C. for 30 minutes. After centrifugation, 100 μL of the supernatant was transferred into the loading plate and 150 μL of pure water was added and mixed uniformly for LC-MS/MS analysis.
# All the data calculation was performed by the Microsoft Excel software. The peak area was detected by extracting the ion chromatogram. The in vitro half-life (t1/2) of the parent drug was detected by performing linear fitting of the natural logarithm of elimination percent of the parent drug and time.
# The in vitro half-life (t1/2) was calculated by means of the slope:
# [3] = tested doses 1.5, 5, 15 mg/kg BID
# T1 sequence (O14744 2-637 limits assumed): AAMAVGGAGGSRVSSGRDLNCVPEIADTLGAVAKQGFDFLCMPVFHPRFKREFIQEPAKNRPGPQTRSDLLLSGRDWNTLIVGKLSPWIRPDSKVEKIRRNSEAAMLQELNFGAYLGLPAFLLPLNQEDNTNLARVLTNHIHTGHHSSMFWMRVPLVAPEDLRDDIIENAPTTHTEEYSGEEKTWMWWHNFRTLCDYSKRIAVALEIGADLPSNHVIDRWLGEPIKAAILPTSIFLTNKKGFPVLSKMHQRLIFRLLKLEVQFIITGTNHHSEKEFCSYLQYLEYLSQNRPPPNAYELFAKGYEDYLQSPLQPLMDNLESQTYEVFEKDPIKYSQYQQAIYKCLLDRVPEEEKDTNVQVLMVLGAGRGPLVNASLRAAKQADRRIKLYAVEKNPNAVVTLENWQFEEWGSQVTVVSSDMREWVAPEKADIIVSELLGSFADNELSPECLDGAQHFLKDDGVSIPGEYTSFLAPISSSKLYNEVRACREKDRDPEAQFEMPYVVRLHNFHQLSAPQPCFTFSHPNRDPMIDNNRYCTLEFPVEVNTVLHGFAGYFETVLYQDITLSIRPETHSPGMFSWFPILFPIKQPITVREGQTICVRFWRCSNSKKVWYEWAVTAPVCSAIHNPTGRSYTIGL
# T1 sequence (Q9BQA1 2-342 partner limits assumed): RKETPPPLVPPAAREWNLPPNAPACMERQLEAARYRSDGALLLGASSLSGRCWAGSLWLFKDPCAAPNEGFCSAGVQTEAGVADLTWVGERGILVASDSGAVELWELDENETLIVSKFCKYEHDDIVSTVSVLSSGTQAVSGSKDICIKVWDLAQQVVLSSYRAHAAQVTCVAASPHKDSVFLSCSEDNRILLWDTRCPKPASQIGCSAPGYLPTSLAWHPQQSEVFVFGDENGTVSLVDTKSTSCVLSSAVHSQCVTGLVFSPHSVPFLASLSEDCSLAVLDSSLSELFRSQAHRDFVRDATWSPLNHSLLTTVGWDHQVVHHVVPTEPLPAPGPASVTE
structure (smiles),measurement,setting,value
"CCN1CCN(C[C@@H](O)[C@@H]2Cc3ccccc3CN2)C(=O)c2ccc(C(=O)N3CCC4(CC3)CC(OC)C4)cc21.Cl [Compound 002, 1-ethyl-4-((R)-2-hydroxy-2-((S)-1,2,3,4-tetrahydroisoquinolin-3-yl)ethyl)-8-(2-methoxy-7-azaspiro[3.5]nonane-7-carbonyl)-1,2,3,4-tetrahydro-5H-benzo[e][1,4]diazepin-5-one hydrochloride]",IC50,PRMT5/MEP50,4.05 nM
same,TGI,[1]; 1.5 mg/kg PO BID x 3 weeks,36.0%
same,Average tumor volume,"[1]; 1.5 mg/kg PO BID, 0 Day",125 mm^3
same,Average tumor volume,"[1]; 1.5 mg/kg PO BID, 4 Day",151 mm^3
same,Average tumor volume,"[1]; 1.5 mg/kg PO BID, 7 Day",203 mm^3
same,Average tumor volume,"[1]; 1.5 mg/kg PO BID, 11 Day",374 mm^3
same,Average tumor volume,"[1]; 1.5 mg/kg PO BID, 14 Day",436 mm^3
same,Average tumor volume,"[1]; 1.5 mg/kg PO BID, 18 Day",567 mm^3
same,Average tumor volume,"[1]; 1.5 mg/kg PO BID, 21 Day",689 mm^3
same,TGI,[1]; 5 mg/kg PO BID x 3 weeks,47.8%
same,Average tumor volume,"[1]; 5 mg/kg PO BID, 0 Day",124 mm^3
same,Average tumor volume,"[1]; 5 mg/kg PO BID, 4 Day",157 mm^3
same,Average tumor volume,"[1]; 5 mg/kg PO BID, 7 Day",197 mm^3
same,Average tumor volume,"[1]; 5 mg/kg PO BID, 11 Day",281 mm^3
same,Average tumor volume,"[1]; 5 mg/kg PO BID, 14 Day",310 mm^3
same,Average tumor volume,"[1]; 5 mg/kg PO BID, 18 Day",452 mm^3
same,Average tumor volume,"[1]; 5 mg/kg PO BID, 21 Day",585 mm^3
same,TGI,[1]; 15 mg/kg PO BID x 3 weeks,112.5%
same,Average tumor volume,"[1]; 15 mg/kg PO BID, 0 Day",126 mm^3
same,Average tumor volume,"[1]; 15 mg/kg PO BID, 4 Day",140 mm^3
same,Average tumor volume,"[1]; 15 mg/kg PO BID, 7 Day",113 mm^3
same,Average tumor volume,"[1]; 15 mg/kg PO BID, 11 Day",59 mm^3
same,Average tumor volume,"[1]; 15 mg/kg PO BID, 14 Day",34 mm^3
same,Average tumor volume,"[1]; 15 mg/kg PO BID, 18 Day",18 mm^3
same,Average tumor volume,"[1]; 15 mg/kg PO BID, 21 Day",16 mm^3
same,Death in mice,[1]; [3],nor did they cause any death in mice
same,Effect on body weights of the mice,[1]; [3],do not significantly affect the body weights of the mice
same,Tolerability,[1]; [3],the mice can tolerate the doses
same,Effect on tumor growth,"[1]; twice daily at 1.5 mg/kg, 5 mg/kg and 15 mg/kg",significant inhibitory effects on tumor growth
same,Effect on tumor size,[1]; twice daily at 15 mg/kg,effect of shrinking tumor
same,half-life at 1 μM,[2],1.58 h
